{"source": "patent US20200339625A1", "about": "“NOVEL RADIOMETAL-BINDING COMPOUNDS FOR DIAGNOSIS OR TREATMENT OF PROSTATE SPECIFIC MEMBRANE ANTIGEN-EXPRESSING CANCER” (PROVINCIAL HEALTH SERVICES AUTHORITY, priority 2017, published 2020)", "key": {"LNCaP tumors": {"system": "LNCaP tumors", "assay": "Radiation dosimetry calculation, unit density sphere model", "design": "species or system mice", "protocol": "Internal dosimetry estimates were calculated using the organ level internal dose assessment (OLINDA) software v.2.0.^37 These estimates were performed for the mouse using the 25 g MOBY phantom,^38 for humans using the NURBS model for the adult male,^39 and for the tumors using the previously reported unit density sphere model.^40 All the phantoms and the sphere model are available in OLINDA and require the input of the total number of decays normalized by injected activity in units of MBq×h/MBq for each of the source organ/tumor.\nLastly, the numbers of decays in the tumors were also calculated based on the biodistribution data of the mice and the values were inputted into the sphere model available in OLINDA."}, "[1]": {"system": "metastatic prostate cancer", "conditions": "cited from earlier work"}, "[2]": {"system": "PSMA-expressing PC-3 PIP tumors", "conditions": "5 MBq; cited from earlier work"}}}
{"smiles": "O=C([O-])CN1CCN(CC(=O)[O-])CCN(CC(=O)NCCCC[C@H](NC(=O)[C@H](CCC(=O)O)NC(=O)CCCc2ccc(I)cc2)C(=O)NC[C@H]2CC[C@H](C(=O)N[C@@H](Cc3ccc4ccccc4c3)C(=O)NCCCC[C@H](NC(=O)N[C@@H](CCC(=O)O)C(=O)O)C(=O)O)CC2)CCN(CC(=O)[O-])CC1.[177Lu+3]", "note": "[^177Lu-HTK01169]", "values": [{"measurement": "kinetic uptake value used as input in OLINDA", "setting": "LNCaP tumors", "value": 31.72, "unit": "MBq-h/MBq"}]}
{"smiles": "O=C([O-])CN1CCN(CC(=O)[O-])CCN(CC(=O)NCC2CCC(C(=O)N[C@@H](Cc3ccc4ccccc4c3)C(=O)NCCCC[C@H](NC(=O)N[C@@H](CCC(=O)O)C(=O)O)C(=O)O)CC2)CCN(CC(=O)[O-])CC1.[177Lu+3]", "note": "(some centres unmarked) [^177Lu-PSMA-617, reference compound]", "values": [{"measurement": "kinetic uptake value used as input in OLINDA", "setting": "LNCaP tumors", "value": 3.80, "unit": "MBq-h/MBq"}, {"measurement": "complete response rate", "setting": "[1]; human, in vivo", "value": "< 7", "unit": "%"}, {"measurement": "patients with progressive disease after treatment", "setting": "[1]; human, in vivo", "value": "up to 33%"}, {"measurement": "side effects", "setting": "[1]; human, in vivo", "value": "without severe side effects"}, {"measurement": "patients having >50% reduction in PSA levels", "setting": "[1]; metastatic prostate cancer", "value": "32-60%"}, {"measurement": "objective response", "setting": "[1]; phase 2 Australian study, patients with measurable nodal or visceral disease", "value": 82, "unit": "%"}, {"measurement": "Median survival", "setting": "[2]", "value": 32, "unit": "days"}]}
